Values of other authors, collected in US8557301B2, “Oral rehydration composition” (Drip Drop, Inc., priority 2011, dated 2013).

System: net sodium and water absorption

## O=C(CO)[C@@H](O)[C@H](O)[C@H](O)CO [fructose]
  effect on potassium transport: stimulates potassium absorption
Relative to glucose
  net sodium and water absorption stimulated, as much as glucose: 66-100%
